Experimental data: PMC3726599, “A Metabolically-Stabilized Phosphonate Analog of Lysophosphatidic Acid Attenuates Collagen-Induced Arthritis” (PLoS ONE, 2013)
Like-named read-outs stand apart in the source and are kept apart here.

How the values were obtained:
A549 cell = tested on: A549 cell; parameters: method as in PMID 20143443; details: A549, in vitro; cited from earlier work
[1] = tested on: LPA production in whole blood; assay: LPA and LPC levels in whole blood ex vivo (HPLC-MS/MS); parameters: species or system mouse
Procedure: BrP-LPA, LPA species (C14:0, C16:0, C18:0, C18:1 and C20:4) and LPC species (C14:0, C16:0, C18:0, C18:1 and C20:0) were measured in plasma with HPLC-ESI/MS/MS using RSLCnano system (Ultimate 3000) coupled in-line with an LTQ Orbitrap XL mass spectrometer (Thermo Scientific, Waltham, MA, USA). BrP-LPA and lipid (LPA, LPC) extraction from plasma was performed on ice according to the Folch method with minor modifications. Plasma samples (50 ul) were mixed with 950 ul PBS prior to extraction and spiked with the internal standard mix (17:1 LPA/LPC). Samples were extracted under neutral conditions with 4 ml of ice-cold CHCl3/CH3OH (2/1, v/v) followed by 2 ml of PBS-saturated ice-cold CHCl3/CH3OH (2/1, v/v). Each extraction step was followed by a 60 s vortex and a 1 min centrifugation step in a bench-top clinical centrifuge in a cold room at 4°C at 3,000 rpm. The lower chloroform organic phases from both neutral extraction steps were pooled and kept for LPC measurement. The remained aqueous phase was chilled on ice for 10 min and extracted twice with ice-cold acidified with acetic acid CHCl3/CH3OH (2/1, v/v) as above. The lower organic phases were pooled, neutralized to pH 6–7 (checked with pH paper as above) on ice and kept for LPA, BrP-LPA measurements. The kept neutral lower organic phase of neutral extraction and the neutralized acidified lower organic phase were evaporated to dryness. The resulting residues were resuspended in 0.15 ml of isopropanol and after brief vortex mixing the solution was transferred to the auto sampler vial. Recovery of LPA species was between 60% and 95%. Recovery of BrP-LPA was 70% and the recovery of LPC species was between 80% and 100%. The Relative Standard Deviation (RSD) was less than 7% from the plasma fortified with three different concentrations (0.1, 0.5 and 1 μΜ) of LPAs, (0.1, 1 and 10 μΜ) of BrP-LPA and (0.5, 5 and 50 μΜ) of LPCs. Analysis was performed using a Phenomenex (Phenomenex, Torrance, CA, USA) Luna Silica column (2–250 mm, 5 μm particle size) using a binary gradient program consisting of isopropanol:hexane:100 mM NH4CO2H(aq) 58:40:2 (mobile phase A) and isopropanol:hexane:100 mM NH4CO2H(aq) 50:40:10 (mobile phase B). The mobile phase was delivered at a flow rate of 0.3 ml/min and the total run time was 50 min/sample. The analysis was performed with electrospray ionization in negative SIM (Single Ion Monitoring) mode for LPA species and BrP-LPA and in positive mode for LPC species (data dependent MS/MS). The resolution was 100 K providing high accuracy for lysophospholipid measurements. Data were collected and processed with the Xcalibur software (Thermo Scientific). The precursor ion mass was used for the quantification while lipid identity was confirmed by precursor ion fragmentation using collision induced dissociation (CID). The peak area ratios (lipid/internal standard) versus the molar ratios (lipid/internal standard) were plotted and fitted to a linear regression. The linear dynamic range of LPA species and BrP-LPA was between 0.01 μM and 10 μΜ.
The inhibition model (competitive, noncompetitive, or mixed type inhibition) was evaluated by graphical analysis with Lineweaver–Burk double reciprocal plots (1/[velocity] versus 1/[substrate]) and Cornish-Bowden plot ([substrate]/[velocity] versus [Inhibitor]). These plots were generated by the measurement of ATX activity in the presence of different BrP-LPA concentrations (0–10 μΜ) and increased amounts of 16:0 LPC (100, 200, 400 μΜ). The inhibition constants (Ki) and IC50 values were determined using the mean values obtained from two independent experiments. The relative remaining ATX activity or LPA levels in the presence of the BrP-LPA was expressed as a percentage of the corresponding control value (ATX activity, LPA levels without inhibitor). […]

CCCCCCCCCCCCCCCC(=O)OC[C@@H](O)CC(Br)P(=O)(O)O (stereo partly drawn) [BrP-LPA, 1-bromo-3(S)-hydroxy-4-(palmitoyloxy)butyl-phosphonate]
cell migration and invasiveness (A549 cell): inhibit cell migration and invasiveness | reduction of 18:0 LPA levels ([1]; BrP-LPA 10 μM): 97% | reduction of total LPA levels ([1]; BrP-LPA 10 μM): 86% | IC50 ([1]; read-out: IC50, production of 16:0 LPA): 1340 nM | IC50 ([1]; read-out: IC50, production of 18:0 LPA): 300 nM | IC50 ([1]; read-out: IC50, production of 18:1 LPA): 1520 nM | IC50 ([1]; read-out: IC50, production of 20:4 LPA): 559 nM | endogenous LPC levels ([1]; upon addition of BrP-LPA): no significant changes
